Assay results from PubChem BioAssay AID330 (DTP/NCI, 2004).
Values joined by “and” are separate entries in the source; they are usually repeats but may differ in a detail not shown here. Equal values may be shown once. Toxic doses and inconclusive results are not listed.

Test system: P388 leukemia ip, CD2F1 mice, survival T/C
Experiment: NCI In Vivo Anticancer Drug Screen. Data for tumor model P388 Leukemia (intraperitoneal) in CD2F1 (CDF1) mice
Conditions: endpoint: median survival time, higher = longer survival
In short: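 Mice carrying the transplanted tumor received test compound or vehicle. Survival was recorded in each group, and the value is the treated-group measurement divided by that of the vehicle-treated control group.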

[1] = dose: 50.0 mg/kg/injection, schedule: Q01DX009 (ip), vehicle: Klucel (hydroxypropylcellulose) (HPC)
[2] = dose: 100.0 mg/kg/injection, schedule: Q01DX009 (ip), vehicle: Klucel (hydroxypropylcellulose) (HPC)
[3] = dose: 200.0 mg/kg/injection, schedule: Q01DX009 (ip), vehicle: Klucel (hydroxypropylcellulose) (HPC)
[4] = dose: 12.5 mg/kg/injection, schedule: Q01DX005 (ip), vehicle: Klucel (hydroxypropylcellulose) (HPC)
[5] = dose: 25.0 mg/kg/injection, schedule: Q01DX005 (ip), vehicle: Klucel (hydroxypropylcellulose) (HPC)
[6] = dose: 50.0 mg/kg/injection, schedule: Q01DX005 (ip), vehicle: Klucel (hydroxypropylcellulose) (HPC)
[7] = dose: 100.0 mg/kg/injection, schedule: Q01DX001 (ip), vehicle: Klucel (hydroxypropylcellulose) (HPC)
[8] = dose: 200.0 mg/kg/injection, schedule: Q01DX001 (ip), vehicle: Klucel (hydroxypropylcellulose) (HPC)
[9] = dose: 400.0 mg/kg/injection, schedule: Q01DX001 (ip), vehicle: Klucel (hydroxypropylcellulose) (HPC)
[10] = dose: 6.25 mg/kg/injection, schedule: Q01DX009 (ip), vehicle: saline
[11] = dose: 12.5 mg/kg/injection, schedule: Q01DX009 (ip), vehicle: saline
[12] = dose: 50.0 mg/kg/injection, schedule: Q01DX009 (ip), vehicle: saline
[13] = dose: 100.0 mg/kg/injection, schedule: Q01DX009 (ip), vehicle: saline
[14] = dose: 200.0 mg/kg/injection, schedule: Q01DX009 (ip), vehicle: saline
[15] = dose: 100.0 mg/kg/injection, schedule: Q01DX005 (ip), vehicle: Klucel (hydroxypropylcellulose) (HPC)
[16] = dose: 200.0 mg/kg/injection, schedule: Q01DX005 (ip), vehicle: Klucel (hydroxypropylcellulose) (HPC)
[17] = dose: 60.0 mg/kg/injection, schedule: Q01DX005 (ip), vehicle: saline with Tween-80
[18] = dose: 120.0 mg/kg/injection, schedule: Q01DX005 (ip), vehicle: saline with Tween-80
[19] = dose: 100.0 mg/kg/injection, schedule: Q01DX009 (ip), vehicle: saline with Tween-80
[20] = dose: 200.0 mg/kg/injection, schedule: Q01DX009 (ip), vehicle: saline with Tween-80
[21] = dose: 3.13 mg/kg/injection, schedule: Q01DX009 (ip), vehicle: water
[22] = dose: 6.25 mg/kg/injection, schedule: Q01DX009 (ip), vehicle: water
[23] = dose: 12.5 mg/kg/injection, schedule: Q01DX009 (ip), vehicle: water
[24] = dose: 50.0 mg/kg/injection, schedule: Q01DX005 (ip), vehicle: saline with Tween-80
[25] = dose: 100.0 mg/kg/injection, schedule: Q01DX005 (ip), vehicle: saline with Tween-80

SMILES: N#C/C(=C\c1c[nH]c2ccccc12)C(N)=O
- T/C (dose: 100.0 mg/kg/injection, schedule: Q04DX003 (ip), vehicle: saline with Tween-80): 100 % of control
- T/C (dose: 200.0 mg/kg/injection, schedule: Q04DX003 (ip), vehicle: saline with Tween-80): 100 % of control
- T/C (dose: 400.0 mg/kg/injection, schedule: Q04DX003 (ip), vehicle: saline with Tween-80): 100 % of control

SMILES: O=[N+]([O-])c1cccc(NC(c2ccc(N(CCCl)CCCl)cc2)P(=O)(Oc2ccccc2)Oc2ccccc2)c1 (stereo unspecified)
- T/C [1]: 95 % of control
- T/C [2]: 98 % of control
- T/C [3]: 95 % of control

SMILES: CC(=O)O[C@@H]1C(=O)[C@]2(CO)C(C(OC(=O)c3ccccc3)C3(O)CC(O)C(C)=C1C3(C)C)[C@@]1(OC(C)=O)CO[C@H]1C[C@H]2O (stereo partly specified)
- T/C (dose: 0.26 mg/kg/injection, schedule: Q01DX009 (ip), vehicle: distilled water + alcohol): 108 % of control
- T/C (dose: 0.53 mg/kg/injection, schedule: Q01DX009 (ip), vehicle: distilled water + alcohol): 106 % of control
- T/C (dose: 1.07 mg/kg/injection, schedule: Q01DX009 (ip), vehicle: distilled water + alcohol): 106 % of control
- T/C (dose: 2.15 mg/kg/injection, schedule: Q01DX009 (ip), vehicle: distilled water + alcohol): 105 % of control
- T/C (dose: 4.3 mg/kg/injection, schedule: Q01DX009 (ip), vehicle: distilled water + alcohol): 108 % of control

SMILES: [CH3][Sn]1([CH3])[O]C(=O)CC(CC(=O)O)C(=O)[O]1 (stereo unspecified)
- T/C [4]: 119 % of control
- T/C [5]: 117 % of control
- T/C [6]: 113 % of control and 117 % of control

SMILES: COc1ccc(C(O)(C2CC2)C2CC2)cc1
- T/C [7]: 98 % of control
- T/C [8]: 94 % of control
- T/C [9]: 98 % of control

SMILES: COc1ccc2c(c1)CCC(c1ccccc1)=C2c1ccc(OCCN2CCCC2)cc1
- T/C (dose: 6.0 mg/kg/injection, schedule: Q01DX005 (ip), vehicle: Klucel (hydroxypropylcellulose) (HPC)): 102 % of control
- T/C (dose: 12.0 mg/kg/injection, schedule: Q01DX005 (ip), vehicle: Klucel (hydroxypropylcellulose) (HPC)): 105 % of control
- T/C (dose: 24.0 mg/kg/injection, schedule: Q01DX005 (ip), vehicle: Klucel (hydroxypropylcellulose) (HPC)): 105 % of control
- T/C (dose: 48.0 mg/kg/injection, schedule: Q01DX005 (ip), vehicle: Klucel (hydroxypropylcellulose) (HPC)): 103 % of control

SMILES: CS(=O)(=O)C#CCCCCCCC#CS(C)(=O)=O
- T/C (dose: 6.25 mg/kg/injection, schedule: Q04DX002 (ip), vehicle: saline): 104 % of control
- T/C (dose: 12.5 mg/kg/injection, schedule: Q04DX002 (ip), vehicle: saline): 97 % of control
- T/C (dose: 25.0 mg/kg/injection, schedule: Q04DX002 (ip), vehicle: saline): 102 % of control

SMILES: CC[N+](C)(CC)CCNC(=O)Nc1ccc(-c2ccc(NC(=O)NCC[N+](C)(CC)CC)c(OC)c2)cc1OC
- T/C [10]: 98 % of control
- T/C [11]: 96 % of control

SMILES: O=c1ccc2cc3c(nc2[nH]1)[nH]c1ccccc13
- T/C (dose: 100.0 mg/kg/injection, schedule: Q04DX002 (ip), vehicle: Klucel (hydroxypropylcellulose) (HPC)): 101 % of control
- T/C (dose: 200.0 mg/kg/injection, schedule: Q04DX002 (ip), vehicle: Klucel (hydroxypropylcellulose) (HPC)): 99 % of control
- T/C (dose: 400.0 mg/kg/injection, schedule: Q04DX002 (ip), vehicle: Klucel (hydroxypropylcellulose) (HPC)): 101 % of control

SMILES: Cc1noc(N(C)C)c1C
- T/C [12]: 102 % of control
- T/C [13]: 100 % of control
- T/C [14]: 108 % of control

SMILES: Cc1ccc(Nc2nnc(-c3ccc4c(c3)OCO4)o2)c(C)c1
- T/C [6]: 97 % of control
- T/C [15]: 97 % of control
- T/C [16]: 100 % of control

SMILES: O=c1c2cc(OCO)ccc2[nH]c2cc3c(=O)c4cc(OCO)ccc4[nH]c3cc12
- T/C [12]: 102 % of control
- T/C [13]: 99 % of control
- T/C [14]: 93 % of control

SMILES: COc1ccc(C(=O)CC2(O)C(=O)Nc3ccccc32)cc1 (stereo unspecified)
- T/C [1]: 100 % of control
- T/C [2]: 102 % of control
- T/C [3]: 100 % of control

SMILES: CC1COC2(CCC(=CC(=O)O)CC2)O1 (stereo unspecified)
- T/C [7]: 100 % of control
- T/C [8]: 102 % of control
- T/C [9]: 97 % of control

SMILES: CCOC(=O)C1C(c2cc(OC)c(OC)c(OC)c2)c2cc3c(cc2OC1(C)OC)OCO3 (stereo unspecified)
- T/C [17]: 86 % of control
- T/C [18]: 86 % of control
- T/C (dose: 240.0 mg/kg/injection, schedule: Q01DX005 (ip), vehicle: saline with Tween-80): 88 % of control

SMILES: COc1cc(C(c2cc3c(cc2OC(C)=O)OCO3)C(C(C)=O)C(C)=O)cc(OC)c1OC(C)=O (stereo unspecified)
- T/C [17]: 90 % of control
- T/C [18]: 96 % of control

SMILES: C1OC2CC1CO2
- T/C (dose: 50.0 mg/kg/injection, schedule: Q01DX009 (ip), vehicle: saline with Tween-80): 100 % of control
- T/C [19]: 103 % of control
- T/C [20]: 103 % of control

SMILES: O=C(CCl)N1c2ccccc2Sc2ccc(Cl)cc21
- T/C [21]: 117 % of control
- T/C [22]: 117 % of control
- T/C [23]: 111 % of control

SMILES: O=C(NN1C(=O)CS(=O)(=O)C1c1ccc(Cl)cc1Cl)c1ccncc1 (stereo unspecified)
- T/C [24]: 100 % of control
- T/C [25]: 100 % of control
- T/C (dose: 200.0 mg/kg/injection, schedule: Q01DX005 (ip), vehicle: saline with Tween-80): 102 % of control

SMILES: O=S(=O)(O)C(Nc1ccccc1)c1ccccc1 (stereo unspecified)
- T/C [19]: 100 % of control
- T/C (dose: 100.0 mg/kg/injection, schedule: Q04DX003 (ip), vehicle: saline sonified): 100 % of control
- T/C [20]: 109 % of control
- T/C (dose: 200.0 mg/kg/injection, schedule: Q04DX003 (ip), vehicle: saline sonified): 100 % of control
- T/C (dose: 400.0 mg/kg/injection, schedule: Q01DX009 (ip), vehicle: saline with Tween-80): 104 % of control
- T/C (dose: 400.0 mg/kg/injection, schedule: Q04DX003 (ip), vehicle: saline sonified): 100 % of control

SMILES: CC(C)(C)[Si](C)(C)O[C@@H]1C=C(S(=O)(=O)c2ccccc2)[C@H](N2CCSCC2)C1
- T/C [4]: 101 % of control
- T/C [5]: 97 % of control
- T/C [6]: 92 % of control

SMILES: CC(C)(C)C(=O)CP(=O)(O)O (tested in a mixture with another compound)
- T/C [12]: 105 % of control
- T/C [13]: 101 % of control

SMILES: Cc1c(O)c(O)c2c(c1O)N=C(Cl)/C2=C\N=NC(N)=S
- T/C [7]: 99 % of control
- T/C [8]: 95 % of control
- T/C [9]: 106 % of control

SMILES: Nc1nc(N)c2cn[nH]c2n1
- T/C [10]: 95 % of control
- T/C [11]: 93 % of control
- T/C (dose: 25.0 mg/kg/injection, schedule: Q01DX009 (ip), vehicle: saline): 100 % of control
- T/C [12]: 104 % of control

SMILES: Cc1ccccc1-[n+]1noc(N)n1
- T/C [21]: 101 % of control
- T/C [22]: 113 % of control
- T/C [23]: 120 % of control
- T/C (dose: 14.7 mg/kg/injection, schedule: Q01DX009 (ip), vehicle: water): 106 % of control

SMILES: C=CCc1c(O)c(OC)cc2c1C(=O)CCCC2
- T/C [2]: 100 % of control
- T/C [3]: 94 % of control
- T/C (dose: 400.0 mg/kg/injection, schedule: Q01DX009 (ip), vehicle: Klucel (hydroxypropylcellulose) (HPC)): 94 % of control

SMILES: CN(C)c1ccc2c(Nc3ccc(NS(C)(=O)=O)cc3)c3ccc(N(C)C)cc3nc2c1
- T/C [5]: 161 % of control
- T/C [6]: 153 % of control and 155 % of control
- T/C [15]: 172 % of control and 212 % of control
- T/C [16]: 173 % of control and 216 % of control

SMILES: CCCNC(=NC)c1ccc(NC(=O)c2ccc(C(=O)Nc3ccc(C(=NC)NCCC)cc3)cc2)cc1
- T/C (dose: 5.2 mg/kg/injection, schedule: Q01DX010 (ip), vehicle: saline): 109 % of control
- T/C (dose: 18.0 mg/kg/injection, schedule: Q01DX010 (ip), vehicle: saline): 118 % of control

SMILES: CCOC(=O)C[n+]1cc2ccccc2cc1C
- T/C [24]: 94 % of control
- T/C [25]: 108 % of control
